Results as given in patent publication US20190119282A1, “IMIDAZOPYRIDAZINES USEFUL AS INHIBITORS OF THE PAR-2 SIGNALING PATHWAY” (Vertex Pharmaceuticals Incorporated, priority 2013, published 2019).
Marks after values point to notes of the source that are not given here.

What was measured:
[1] = molecular target: T1, PAR2 (HT-29 cells, SLIGKV activation) (Homo sapiens, UniProt P55085); assay: Ca FLIPR TETRA assay, ANTAGONIST mode, stimulation with 8 μM SLIGKV; assay type: cell-based; conditions: HT-29 cells, antagonist mode, stimulation with 8 μM SLIGKV
T1 construct: host or cells: HT-29 cells
T1 sequence (P55085 26-397): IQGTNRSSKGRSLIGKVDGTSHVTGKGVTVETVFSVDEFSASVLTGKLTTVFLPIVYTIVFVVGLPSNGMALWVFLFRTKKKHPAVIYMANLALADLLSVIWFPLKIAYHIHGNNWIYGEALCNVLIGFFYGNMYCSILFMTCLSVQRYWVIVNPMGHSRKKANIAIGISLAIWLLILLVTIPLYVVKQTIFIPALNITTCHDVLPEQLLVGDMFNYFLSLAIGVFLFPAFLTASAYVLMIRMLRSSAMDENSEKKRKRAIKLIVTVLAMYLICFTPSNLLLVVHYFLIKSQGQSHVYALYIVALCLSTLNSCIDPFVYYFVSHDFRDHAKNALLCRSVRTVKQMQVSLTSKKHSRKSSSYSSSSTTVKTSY
Summary of the method: (§1)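 FLIPR Tetra Ca2+ read-out in HT-29 cells, calcium 5 dye. Compound preincubation 30 min r.t., with an initial read for agonist activity. Final activator levels: SLIGKV 8 μM, thrombin 1 U/mL, trypsin 3.1 U/mL, UTP 0.6 μM.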

[2] = test system: Thrombin-stimulated Ca2+ response in HT-29 cells; assay: Ca FLIPR TETRA assay, ANTAGONIST mode, stimulation with 1 U/mL Thrombin; assay type: cell-based, human; conditions: Homo sapiens; HT-29 cells, antagonist mode, stimulation with 1 U/mL Thrombin
Summary of the method: as §1

[3] = In vivo rat pharmacokinetics (intravenous and oral); conditions: plasma
Summary of the method: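 Rats dosed by tail-vein bolus at 0.5–1 mg/kg in NMP-based solutions, or by oral gavage at 1–600 mg/kg as solution, suspension or spray-dried dispersion. Jugular blood in K3EDTA gave plasma or citrate-diluted whole blood; LC-MS/MS quantification, non-compartmental PK analysis.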

[4] = test system: tryptase-induced mechanical hypersensitivity; assay: Rat tryptase-induced mechanical hypersensitivity model; assay type: in vivo, Sprague Dawley rats; conditions: given 30 minutes post tryptase challenge
Method: (§2) Male Sprague Dawley rats and BALB/c mice were housed in groups in a temperature controlled room and were acclimatized in the animal facility for at least three days prior to use. Experiments were performed during the light phase of the cycle. Animals have food and water ad libitum.
Example 64: Rat Tryptase-Induced Mechanical Hypersensitivity Model
Peripheral sensitization was induced by intra-dermal administration of 500 ng of tryptase in a volume of 10 ul PBS under isoflurane anesthesia. Rats were then placed on a wire mesh grid in separate compartments and allowed to acclimatize before testing. Mechanical hypersensitivity was assessed 30 min after tryptase injection using calibrated von Frey filaments applied perpendicular to the plantar surface of the affected paw using the up-and-down method. Test compounds or vehicle (0.5% MC/0.1% SDS) were systemically administered at doses indicated in a volume of 5 mL/kg 3-18 h before the tryptase challenge (Table 11) or 30 minutes post tryptase challenge (Table 12).
(§3) Data are expressed as the mean % effect. Statistical significance was assessed using t-test for comparison between naive and inflamed rats, and one-way ANOVA followed by post-hoc comparison test for overall drug effectiveness. A difference between groups is considered significant with a p value of <0.05. *, p<0.05; **, p<0.01; ***, p<0.001 vs. vehicle.

[5] = test system: TNBS-induced colitis; assay: Mouse TNBS-induced colitis model; assay type: in vivo, BALB/c mice; conditions: mice
Method: as §2
Example 65: Mouse TNBS-Induced Colitis Model
Colitis was induced by intra-colonic administration of 1.5 mg of TNBS in 75 μl of 40% v/volume ethanol solution under isoflurane anesthesia at a depth of 4 cm from the anal verge. Mice were kept with their heads down for 30 additional seconds post administration to ensure distribution of TNBS. Disease activity scores were assessed for a period of 5 days starting prior to TNBS injection (baseline reading). […] Test compounds or vehicle (0.5% MC/0.1% SDS) were systemically administered at the indicated doses in a volume of 10 mL/kg each day for 5 days and starting 1 day before TNBS.
as §3

Work on `Cc1nc(C(=O)N2CCN(C(=O)c3cn4nc(-c5ccc(F)cc5)cc(C(C)(C)C)c4n3)C(C)(C)C2)n[nH]1` [Compound I-343, (8-(tert-butyl)-6-(4-fluorophenyl)imidazo[1,2-b]pyridazin-2-yl)(2,2-dimethyl-4-(5-methyl-1H-1,2,4-triazole-3-carbonyl)piperazin-1-yl)methanone] yielded an IC50 [1] of 0.5 nM, an IC50 [2] of 1110 nM and a clearance ([3]; intravenous 0.5 to 1 mg/kg, read-out: Clp) of 3.39 mL/min/kg. The Vd ([3]; intravenous, read-out: Vss) was 1.65 L/kg, the bioavailability ([3]; oral by gavage) was 62% and the half-life ([3]; read-out: T ½ (converted)) was 422 min. For the same molecule, the “% inhibition of an established tryptase-induced nociception” value (“% inhibition” below) ([4]; dose 3 mg/kg) was 12%, the “% inhibition” value ([4]; dose 10 mg/kg) was 23% and the “% inhibition” value ([4]; dose 30 mg/kg) was 49* %. For the same molecule, the “% improvement in Disease activity scores” value ([5]; dose 15 mg/kg each day for 5 days starting 1 day before TNBS) was 24%, the “% improvement in Disease activity scores” value ([5]; dose 50 mg/kg each day for 5 days starting 1 day before TNBS) was 33* % and the “% improvement in Disease activity scores” value ([5]; dose 150 mg/kg each day for 5 days starting 1 day before TNBS) was 62*** %.
